# Assay results: patent publication US20190127313A1, “ANTIMICROBIAL AGENTS” (THE UNIVERSITY OF WARWICK, priority 2016, published 2019)
# How the values were obtained:
# [1] = system: multidrug-resistant A. baumannii strains; assay: MIC against multidrug-resistant A. baumannii strains; type: cell-based; details: Acinetobacter baumannii
# Procedure: Minimal inhibitory concentrations (MICs) were determined by the CLSI broth microdilution method. Briefly, representative members of the ESKAPE panel of pathogens were grown overnight in Mueller-Hinton (MH) broth at 30° C. Each organism was diluted to a final concentration of 5×10^5 […] using McFarland turbidity standards. Concentrations of vibroxin followed twofold dilutions starting at 32 μg/mL. Assays were incubated for 18h at 30° C.
# [2] = Alkaline hydrolysis of the ester linkage, LC-MS analysis; type: physicochemical; details: 0.4M KOH, 37° C., 4h
# Procedure: The relative stereochemistry of the dihydroxycyclohexane carboxylic acid (DHCCA) moiety in vibroxin was determined by hydrolyzing the ester linkage in vibroxin under basic conditions. […] The same was not true for the corresponding portion of enacyloxin, which had degraded. […] The alkaline hydrolysis reaction was carried out by combining 15 μl of a 5 mg/ml solution of vibroxin/enacyloxin in methanol with 185 μl 0.4M KOH. Following incubation at 37° C. for 4h, the mixture was acidified (<pH 4) with 35% HCl. The samples were analysed by UHPLC-ESI-QTOF-MS analysis using a Dionex UltiMate 3000 RS UHPLC connected to a Zorbax Eclipse Plus column (C18, 100×2.1 mm, 1.8 μm) coupled to a Bruker MaXis IMPACT mass spectrometer. The mass spectrometer was operated in positive ion mode with a scan range of 50-3000 m/z.
# [3] = system: A2780 human ovarian cancer cells; assay: Cytotoxicity, SRB assay, A2780 cells; type: cell-based; details: 24 h exposure, 72 h recovery
# Procedure: The cells were obtained from the European Collection of Animal Cell Culture and grown as single monolayers in Roswell Park Memorial Institute medium (RPMI-1640) supplemented with 10% (v/v) fetal calf serum, 1% (v/v) 2 mM L-glutamine and 1% (v/v) penicillin (10 k units/mL)/streptomycin (10 mg/mL). Cells were kept at 310 K in a humidified atmosphere containing 5% CO2 and maintenance passages were done at ca. 80% confluency.
# For cytotoxicity measurements, 96-well plates were used to seed 5000 A2780 cells per well. These were left to pre-incubate in drug-free media at 310 K for 48 h before adding various concentrations of vibroxin. A stock solution of vibroxin was prepared in 5% v/v DMSO and 95% v/v cell culture medium. Then, serial dilutions with culture medium were carried out to achieve working concentrations. […] The percentage of viable cells resulting from exposure to vibroxin was determined by measuring the absorbance due to soluble sulforohodamine relative to an untreated control. The absorbance measurements were carried out using a BioRad iMark microplate reader with a 470 nm filter. Mean percentage cell viability values+/−1 standard deviation were calculated from duplicates of triplicates in two independent sets of experiments.
# [4] = system: Klebsiella pneumoniae DSM26371; assay: MIC by CLSI broth microdilution, ESKAPE panel; type: cell-based; details: MH broth, 18h at 30° C.
# Procedure: (§1) Minimal inhibitory concentrations (MICs) were determined by the CLSI broth microdilution method. Briefly, representative members of the […] panel of pathogens were grown overnight in Mueller-Hinton (MH) broth at 30° C. Each organism was diluted to a final concentration of 5×10^5 […] using McFarland turbidity standards. Concentrations of vibroxin followed twofold dilutions starting at 32 μg/mL. Assays were incubated for 18h at 30° C. […] Cell suspensions without visible growth were then plated out on LB agar plates to determine the minimal bactericidal concentration (MBC). The MBC was set as the lowest concentration required to kill 99.9% of the originally inoculated 5.10^5 CFU/ml. All MIC and MBC determinations were performed in triplicate.
# [5] = system: Enterobacter cloacae DSM16690; assay: MIC by CLSI broth microdilution, ESKAPE panel; type: cell-based; details: MH broth, 18h at 30° C.
# Procedure: as §1
# [6] = system: Pseudomonas aeruginosa DSM29239; assay: MIC by CLSI broth microdilution, ESKAPE panel; type: cell-based; details: MH broth, 18h at 30° C.
# Procedure: as §1
# [7] = system: Enterococcus faecium DSM25390; assay: MIC by CLSI broth microdilution, ESKAPE panel; type: cell-based; details: MH broth, 18h at 30° C.
# Procedure: as §1
# [8] = system: Staphylococcus aureus DSM21979; assay: MIC by CLSI broth microdilution, ESKAPE panel; type: cell-based; details: MH broth, 18h at 30° C.
# Procedure: as §1
# [9] = system: Acinetobacter baumannii ATCC17978; assay: MIC/MBC by CLSI broth microdilution, ESKAPE panel; type: cell-based
# Procedure: as §1
# [10] = system: Acinetobacter baumannii DSM25645; assay: MIC/MBC by CLSI broth microdilution, ESKAPE panel; type: cell-based
# Procedure: as §1
# [11] = system: Acinetobacter baumannii AYE; assay: MIC/MBC by CLSI broth microdilution, ESKAPE panel; type: cell-based
# Procedure: as §1
# [12] = system: Acinetobacter baumannii S1; assay: MIC/MBC by CLSI broth microdilution, ESKAPE panel; type: cell-based
# Procedure: as §1
# [13] = system: Acinetobacter baumannii AB5075; assay: MIC/MBC by CLSI broth microdilution, ESKAPE panel; type: cell-based
# Procedure: as §1
# A. baumannii strains = details: see Furukawa et al. 2007; cited from earlier work
# [14] = lowest concentration required to kill 99.9%
Compound,MIC [1] [µg/mL],"polyketide chain resulting from alkaline hydrolysis of the ester linkage, detection by LC-MS [2]",IC50 [3] [µM],MIC [4] [µg/mL],MIC [5] [µg/mL],MIC [6] [µg/mL],MIC [7] [µg/mL],MIC [8] [µg/mL],"MIC ([9]; MH broth, 18h at 30° C.) [µg/mL]","MBC [9, 14] [µg/mL]","MIC ([10]; MH broth, 18h at 30° C.) [µg/mL]","MBC [10, 14] [µg/mL]","MIC ([11]; MH broth, 18h at 30° C.) [µg/mL]","MBC [11, 14] [µg/mL]","MIC ([12]; MH broth, 18h at 30° C.) [µg/mL]","MBC [12, 14] [µg/mL]","MIC ([13]; MH broth, 18h at 30° C.) [µg/mL]","MBC [13, 14] [µg/mL]",chemical stability (comparison) ([2]; alkaline hydrolysis),MIC (A. baumannii strains) [µg/mL]
"CC/C=C/[C@@H](OC(N)=O)[C@@H](Cl)[C@H](O)CC(=O)[C@@H](O)[C@H](O)C(C)/C(Cl)=C/C=C/C=C(C)/C=C/C=C/C(=O)O[C@@H]1CC(C(=O)O)CC[C@@H]1O (stereo partly shown) [enacyloxin, enacyloxin IIa, reference compound]",2,had degraded,,,,,,,,,,,,,,,,,,
CC(/C=C/C=C/C(=O)OC1CC(C(=O)O)CCC1O)=C\C=C\C=C(/Cl)C(C)C(O)C(O)C(O)CC(O)/C=C/C=C/C(C)C (stereo not shown) [vibroxin],2,could also be detected by LC-MS,50 to 100,> 32,> 32,> 32,> 32,> 32,2,8,2,8,2,4,1,8,2,4,greater chemical stability than enacyloxin,
C-18 deschloro-enacyloxin,,,,,,,,,,,,,,,,,,,,> 32
